Measurements from patent publication US12171813B2, “Methods of and compositions for reducing gene expression and/or activity” (Christiana Care Gene Editing Institute, Inc., priority 2021, dated 2024).

Tests used:
EGFR gene = test: Screening of SureKill guide RNAs in the EGFR gene for ability to induce indels; type: cell-based; conditions: transfections of individual guide RNAs (spCas9 RNP); PDMR human lung adenocarcinoma cells with EGFR L858R; DECODR
Procedure: (§1) Human lung squamous cell carcinoma NCI-H1703 clone 44-25 cells were derived from NCI-H1703 cells (#CRL-5889) which were purchased from ATCC (Manassas, VA, USA). NCI-H1703 clone 44-25 cells contains R34G mutation (C 4 G) in NFE2L2 gene. H1703 clone 44-25 cells were cultured in ATCC formulation RPMI-1640 with 10% FBS. T75 flasks were used and cells were split 1:5 upon reaching 90% confluency. Human lung adenocarcinoma cells (Dist. Lot. No. LG0703-F948-PDC) were acquired from the National Institute of Health's National Cancer Institute's Patient-Derived Models Repository (PDMR). This PDMR cell line contains the L858R mutation (T 4 G) in the EGFR gene. The PDMR cells were maintained in Advanced DMEM/F12 media containing 10% FBS, 0.4 μg/mL hydrocortisone, 0.01 μg/mL EGF Recombinant Human Protein, 24 μg/mL adenine, and 2 mM L-Glutamine. T75s were used and cells were split 1:3 upon reaching 90% confluency. All cultures were maintained in cell culture incubators at 37° C. and 5% CO2.
(§2) Ribonucleoproteins (RNP) are complexed by incubating 250 pmol of purified synthetic gRNA (Synthego Corporation, Redwood City, CA) with 50 pmol of purified spCas9 (Synthego Corporation, Redwood City, CA) at room temperature in nuclease-free 1× TE buffer for 15 minutes.
(§3) Transfections were carried out using the Lonza Nuclefector 4d. Cultures in t75s at 90% confluence were split 1:2 24 hours prior to transfection. RNPs were complexed at 250:50 pmol for 30 minutes prior to transfection, during which time cells were harvested and counted. All reactions were 100 μL and contained 1 e6 cells. Lonza SF solution and Nucleofector program CM-130 were used in all transfections of the H1703 cell line. Lonza SE solution and Nucleofector program CA-137 were used in all transfections of the PDMR. After transfection, 500 μL of media that had been equilibrated to cell culture CO2 and temperature conditions was added to each 100 μL cuvettes. Cuvettes were then placed in the incubator. After 20 minutes, the entire content of each cuvette was seeded into 3 mL of media in a 6 well plate. After 72 hours, samples were dissociated using 200 μL Trypsin 0.25% for 5 minutes. 800 μL culture media was used to quench and split into 1.5 mL tubes each containing 500 μL of the sample. Tubes were spun at 300×g for 5 minutes. One of the tubes was placed in the −20° C. freezer and the other was resuspended in 500 μL of Trizol for RNA extraction and cDNA synthesis.
(§4) All sequencing was performed on the Applied Biosystems SeqStudio. The BigDye Terminator v3.1 Cycle Sequencing Kit was used to prepare samples for sequencing. Resulting sequences were analyzed with DECODR to determine indel rates (Bloh et al., CRISPR J. 4:120-31 (2021)).
Human EGFR is a frequently mutated gene that is associated with cancers. One of the most common mutations is L858R which results in the creation of a novel PAM site, making it a targetable sequence by CRISPR. Like the R34G mutation, the CRISPR designed to target the L858R mutation is not highly efficient on its own. By combining the L858R-targeting CRISPR with another CRISPR of high efficiency in a downstream intronic region, exon skipping can be induced, resulting in a higher efficiency of functional knockout than the L858R targeting CRISPR alone. To find a suitable gRNA to pair with the L858R targeting CRISPR, we selected the intron between exons 21 and 22 (FIG. 6). A series of gRNAs were created in this region and screened for their ability to induce indels, a measure of their activity using DECODR (Bloh et al., CRISPR J. 4:120-31 (2021)) (Table 3).
In Table 3, all sequences are listed from 5′ to 3′. Indel percent, a measure of CRISPR activity, is based on transfections of individual guide RNAs. All guide RNAs, with the exception of L858R, were designed in the intron between exons 21 and 22.

NFE2L2 gene = test: Screening of SureKill guide RNAs in the NFE2L2 gene for ability to induce indels; type: cell-based, Human; conditions: transfections of individual guide RNAs (spCas9 RNP); NCI-H1703 clone 44-25 cells; DECODR
Procedure: as §1, §2, §3, §4
In some cancers, human NRF2 contains a mutation, R34G, that creates a novel PAM site making it a targetable sequence by CRISPR. By combining the R34G-targeting CRISPR with another CRISPR of high efficiency in a downstream intronic region, exon skipping can be induced, resulting in a higher efficiency of functional knockout than the R34G targeting CRISPR alone. To find a suitable SureKill guide RNA (gRNA) to pair with the R34G targeting CRISPR, we selected the intron between exons 3 and 4 (FIG. 2). A series of gRNAs were created in this region and screened for their ability to induce indels, a measure of their activity (Table 2).
In Table 2, all sequences are listed from 5′ to 3′. Indel %, a measure of CRISPR activity, is based on transfections of individual guide RNAs. All guide RNAs, with the exception of R34G, were designed in the intron between exons 3 and 4.

NRF2 = test: cDNA PCR analysis of exon skipping / full-size transcript in NFE2L2; type: cell-based, Human; conditions: gRNA individually applied in the CRISPR reaction; NCI-H1703 clone 44-25 cells
Procedure: After CRISPR reactions, total RNA was prepared, and cDNA synthesized for PCR amplification of the target region from NRF2. PCR-amplified DNA was then analyzed by electrophoresis through a 1% agarose gel for 75 minutes at 80v. DNA was stained with SYBR Safe. Lanes 1 and 10: NEB 2 Log Ladder; Lane 2: Scrambled gRNA; Lane 3: NRF2 3-4 SureKill gRNA 3 alone; Lane 4: NRF2 3-4 SureKill gRNA 12 alone; Lane 5: NRF2 3-4 SureKill gRNA 14 alone; Lane 6: NRF2 3-4 SureKill gRNA 15 alone; Lane 7: NRF2 3-4 SureKill gRNA 21 alone; Lane 8: NRF2 3-4 SureKill gRNA 25 alone; Lane 9: NRF2 3-4 SureKill gRNA 26 alone. On the left side of the image are markers indicating DNA size in bp.
After CRISPR reactions, total RNA was prepared, and cDNA synthesized for PCR amplification of the target region from NRF2. PCR-amplified DNA was then analyzed by electrophoresis through a 1% agarose gel for 75 minutes at 80v. DNA was stained with SYBR Safe. Lane 1: NEB 2 Log Ladder; Lane 2: Scrambled gRNA; Lane 3: R34G gRNA alone; Lane 4: NRF2 3-4 SureKill gRNA 3+R34G gRNA; Lane 5: NRF2 3-4 SureKill gRNA+R34G gRNA; Lane 6: NRF2 3-4 SureKill gRNA 14+R34G gRNA. […]
Transfections were carried out using the Lonza Nuclefector 4d. […] RNPs were complexed at 250:50 pmol for 30 minutes prior to transfection, during which time cells were harvested and counted. […]

Substance | indel % (EGFR gene) | indel % (NFE2L2 gene) | exon skipping (cDNA analysis) (NRF2)
EGFR 21-22 SureKill gRNA 2: EGFR intron 21-22 guide RNA GTATTGTTTAACACATGCAG, SEQ ID NO:10 (listed as DNA, chemistry not given here) | 2% |  | 
EGFR 21-22 SureKill gRNA 10A: EGFR intron 21-22 guide RNA GTTTAACACATGCAGGGG, SEQ ID NO:35 (listed as DNA, chemistry not given here) | 0% |  | 
EGFR 21-22 SureKill gRNA 10B: EGFR intron 21-22 guide RNA GTATTGTTTAACACATGCAGGGG, SEQ ID NO:36 (listed as DNA, chemistry not given here) | 0% |  | 
EGFR 21-22 SureKill gRNA 23: EGFR intron 21-22 guide RNA GCATTTTCCTGACACCAGGGACC, SEQ ID NO:47 (listed as DNA, chemistry not given here) | 96.15% |  | 
EGFR 21-22 SureKill gRNA 29: EGFR intron 21-22 guide RNA GTTAAACAATACAGCTAGT, SEQ ID NO:52 (listed as DNA, chemistry not given here) | 100% |  | 
NRF2 3-4 SureKill gRNA 10: NRF2 intron 3-4 guide RNA GGTTTTGTATTGTGTGAA, SEQ ID NO:15 (listed as DNA, chemistry not given here) |  | 32.2% | 
NRF2 3-4 SureKill gRNA 26: NRF2 intron 3-4 guide RNA GCTTACTCATCCCCTGTTGG, SEQ ID NO:28 (listed as DNA, chemistry not given here) |  | 89.65% | some level of exon skipping
NRF2 3-4 SureKill gRNA 29a: NRF2 intron 3-4 guide RNA GATTCCATTTTGTTTTGTAG, SEQ ID NO:30 (listed as DNA, chemistry not given here) |  | 11.85% | 
NRF2 3-4 SureKill gRNA 29b: NRF2 intron 3-4 guide RNA GATTTATGAGTCTTCCACCAAC, SEQ ID NO:31 (listed as DNA, chemistry not given here) |  | 11.8% | 
NRF2 3-4 SureKill gRNA 31: NRF2 intron 3-4 guide RNA GTTTGGTGAGTAAAGAGCCAGC, SEQ ID NO:33 (listed as DNA, chemistry not given here) |  | 14.55% | 
NRF2 3-4 SureKill gRNA 32: NRF2 intron 3-4 guide RNA GGTTATGCTGTCCATGTTTC, SEQ ID NO:34 (listed as DNA, chemistry not given here) |  | 47.8% | 
